Measurements published in patent US10550089B2, “Inhibitors of protease-activated receptor-2” (Heptares Therapeutics Limited, priority 2016, dated 2020).

Legend:
PAR2 [1] = target: T1, PAR2 (Homo sapiens (Human), UniProt P55085); test: IP-One HTRF assay for PAR2 antagonist activity (IP1 production); assay type: cell-based
Experimental: Protocol for Testing Compounds for PAR2 Antagonist Activity Using an IP-One HTRF Assay
Inositol monophosphate (IP1) production were measured in 1321N1 cells stably expressing human PAR2 using an IP-One HTRF assay kit (Cisbio). […] After 60 min at 37° C. cells were lysed and IP1 concentrations were detected according to the manufacturers protocol (Cisbio). Data were normalized to IP1 concentrations using a IP1 standard curve according to the manufacturers protocol (Cisbio).

PAR2 [2] = target: T1, PAR2; test: Trypsin activated FLPR Ca2+ mobilization assay for PAR2 antagonist activity; assay type: cell-based
Experimental: Trypin Activated FLPR Assay:
Protocol for Testing Compounds for PAR2 Antagonist Activity Using a Ca2+ Mobilization Assay
Calcium mobilization was measured using 1321N1 cells stably expressing human PAR2. Cells were seeded in 384-well plates at 4,000 cells per well in 20 μl DMEM with Glutamax supplemented with 10% FBS and incubated for 18-24 h at 37° C., 5% CO2 and 95% humidity. […] The addition was done using a FLIPR^TETRA (384-well head, Molecular Devices) and the response was read simultaneously to detect any agonist activity.

[3] = 1321N1 cells stably expressing human PAR2, agonist SLIGRL-NH2, read-out: hPAR2 IPpone IC50
[4] = 1321N1 cells stably expressing human PAR2, agonist Trypsin, Vorapaxar present to block PAR1, read-out: hPAR2 FLPR (Trypsin) IC50
[5] = hPAR2 IPpone IC50 (μM), 1321N1 cells stably expressing human PAR2, agonist SLIGRL-NH2
[6] = hPAR2 FLPR (Trypsin) IC50 (μM), 1321N1 cells stably expressing human PAR2, agonist Trypsin, Vorapaxar present to block PAR1

T1 sequence (P55085 26-397): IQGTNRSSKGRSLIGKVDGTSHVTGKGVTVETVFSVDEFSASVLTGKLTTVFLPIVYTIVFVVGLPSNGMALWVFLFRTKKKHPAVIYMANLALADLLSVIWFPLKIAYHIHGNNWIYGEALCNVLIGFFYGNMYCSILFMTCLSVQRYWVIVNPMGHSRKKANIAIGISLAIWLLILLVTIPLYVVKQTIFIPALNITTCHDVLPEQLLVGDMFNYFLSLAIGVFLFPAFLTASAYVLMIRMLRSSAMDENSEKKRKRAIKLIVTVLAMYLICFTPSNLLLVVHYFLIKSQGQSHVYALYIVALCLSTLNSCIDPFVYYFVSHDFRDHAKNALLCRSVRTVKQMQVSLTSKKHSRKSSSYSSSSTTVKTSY

Compound | IC50 (PAR2 [1]; [3]) [µM] | IC50 (PAR2 [2]; [4]) [µM] | other results
OC(c1ncc[nH]1)c1cccc(Cl)c1-n1cccn1 (stereo not drawn) [Example 21, (3-Chloro-2-(1H-pyrazol-1-yl)phenyl) (1H-imidazol-2-yl)methanol] | 6.4 | 40.3 | 
OC(c1ncc[nH]1)c1ccc(F)cc1N1CC=CC1 (stereo not drawn) [Example 17, (2-(2,5-dihydro-1H-pyrrol-1-yl)-4-fluorophenyl)(1H-imidazol-2-yl)methanol] | 1.05 | 8.75 | 
CCc1coc2c(F)ccc([C@@H](O)c3ncc[nH]3)c12 (single isomer, unassigned) [Example 41] |  |  | IC50 (PAR2 [1]; [5]): 26 µM; IC50 (PAR2 [2]; [6]): 2.19 µM
OC(c1ncc[nH]1)c1ccc(F)cc1-n1cccn1 (stereo not drawn) [Example 23, (4-Fluoro-2-(1H-pyrazol-1-yl)phenyl)(1H-imidazol-2-yl)methanol] | 7.21 | 25.4 | 
CCn1ccc2c(F)ccc(C(O)c3ncc[nH]3)c21 (stereo not drawn) [Example 57, (1-Ethyl-4-fluoro-1H-indol-7-yl)(1H-imidazol-2-yl)methanol] | 1.65 | 9.03 | 
OC(c1ncc[nH]1)c1ccc(F)cc1N1CCC(F)(F)C1 (stereo not drawn) [Example 28, (2-(3,3-Difluoropyrrolidin-1-yl)-4-fluorophenyl)(1H-imidazol-2-yl)methanol] | 4.91 | 30.3 | 
CC1(F)CN(c2cc(F)ccc2C(O)c2ncc[nH]2)C1 (stereo not drawn) [Example 24, (4-Fluoro-2-(3-fluoro-3-methylazetidin-1-yl)phenyl)(1H-imidazol-2-yl)methanol] | 6.73 | 16.3 | 
OC(c1ncc[nH]1)c1ccc(F)cc1N1CCC1 (stereo not drawn) [Example 20, (2-(Azetidin-1-yl)-4-fluorophenyl)(1H-imidazol-2-yl)methanol] | 4.5 | 18.6 | 
OC(c1ncc[nH]1)c1ccc(F)c2ccc(Cl)n12 (stereo not drawn) [Example 61, (3-Chloro-8-fluoro-indolizin-5-yl)-(1H-imidazol-2-yl)methanol] | 1.9 | 3.1 | 
CCCc1c(C(O)c2ncc[nH]2)ccc(F)c1F (stereo not drawn) [Example 10, (3,4-Difluoro-2-propylphenyl)(1H-imidazol-2-yl)methanol] | 1.66 | 5.9 | 
OC(c1ncc[nH]1)c1ccc(F)cc1C12CCCC1C2 (stereo not drawn) [Example 31, (2-(Bicyclo[3.1.0]hexan-1-yl)-4-fluorophenyl)(1H-imidazol-2-yl)methanol] | 4.32 | > 41 | 
Cc1coc2c(F)ccc(C(O)c3ncc[nH]3)c12 (stereo not drawn) [Example 52, (7-Fluoro-3-methylbenzofuran-4-yl)(1H-imidazol-2-yl)methanol] | 0.97 | 3.27 | 
OC(c1ncc[nH]1)c1ccc(F)cc1-c1cscn1 (stereo not drawn) [Example 33, (4-Fluoro-2-(thiazol-4-yl)phenyl)(1H-imidazol-2-yl)methanol] |  |  | IC50 (PAR2 [1]; hPAR2 IPpone IC50 (μM)): 3.6 µM; IC50 (PAR2 [2]; hPAR2 FLPR (Trypsin) IC50 (μM)): 16.8 µM
OC(c1ncc[nH]1)c1ccc(F)cc1N1CC2CC2C1 (stereo not drawn) [Example 30, (2-(3-Azabicyclo[3.1.0]hexan-3-yl)-4-fluorophenyl)(1H-imidazol-2-yl)methanol] |  |  | IC50 (PAR2 [1]; [5]): 4.67 µM; IC50 (PAR2 [2]; [6]): 11.6 µM
CCCc1cc(F)ccc1[C@@H](O)c1ncc[nH]1 [Example 2, (R)-(4-fluoro-2-propylphenyl)(1H-imidazol-2-yl)methanol] | > 100 | > 41 | 
CC1CN(c2cc(F)ccc2C(O)c2ncc[nH]2)C1 (stereo not drawn) [Example 25, (4-Fluoro-2-(3-methylazetidin-1-yl)phenyl)(1H-imidazol-2-yl)methanol] | 6.88 | 22 | 
C[C@@H]1CCN(c2cc(F)ccc2C(O)c2ncc[nH]2)C1 (stereo partly drawn) [Example 29, (4-Fluoro-2-((R)-3-methylpyrrolidin-1-yl)phenyl)(1H-imidazol-2-yl)methanol] | 13.1 | > 41.6 | 
OC(c1ncc[nH]1)c1ccc(F)cc1N1CC=CC1 (single isomer, unassigned) [Example 19, (2-(2,5-dihydro-1H-pyrrol-1-yl)-4-fluorophenyl) (1H-imidazol-2-yl)methanol] | 93 | > 100 | 
OC(c1ncc[nH]1)c1ccc(F)cc1C1CCC1 (stereo not drawn) [Example 7, (2-Cyclobutyl-4-fluorophenyl)(1H-imidazol-2-yl)methanol] | 11.5 | 7.85 | 
OC(c1ncc[nH]1)c1ccc(F)cc1N1CCCC1 (single isomer, unassigned) [Example 15, (4-Fluoro-2-(pyrrolidin-1-yl)phenyl)(1H-imidazol-2-yl)methanol] |  |  | IC50 (PAR2 [1]; hPAR2 IPpone IC50 (μM)): > 100 µM; IC50 (PAR2 [2]; hPAR2 FLPR (Trypsin) IC50 (μM)): > 41 µM
OC(c1ncc[nH]1)c1ccc(F)c2ccc(C3CC3)n12 (stereo not drawn) [Example 39, (3-Cyclopropyl-8-fluoroindolizin-5-yl)(1H-imidazol-2-yl)methanol] |  |  | IC50 (PAR2 [1]; [5]): 13.2 µM

Compound | IC50 (PAR2 [1]; [3]) [µM] | IC50 (PAR2 [2]; [4]) [µM] | other results
OC(c1ncc[nH]1)c1ccc(F)cc1C1=CCCC1 (stereo not drawn) [Example 5, (2-Cyclopentenyl-4-fluorophenyl)(1H-imidazol-2-yl)methanol] | 5.18 | 13.7 | 
CCCc1c(C(O)c2ncc[nH]2)ccc(F)c1F (single isomer, unassigned) [Example 11, (3,4-Difluoro-2-propylphenyl)(1H-imidazol-2-yl)methanol] | > 41 | > 77 | 
OC(c1ncc[nH]1)c1ccccc1C1=CCCC1 (stereo not drawn) [Example 4, (2-Cyclopentenylphenyl)(1H-imidazol-2-yl)methanol] | 6.27 | 16.6 | 
OC(c1ncc[nH]1)c1ccc(F)cc1N1CC[C@@H](F)C1 (stereo partly drawn) [Example 27, (4-Fluoro-2-((R)-3-fluoropyrrolidin-1-yl)phenyl)(1H-imidazol-2-yl)methanol] | 6.96 | > 41.6 | 
OC(c1ncc[nH]1)c1ccc(F)c2occ(C3CC3)c12 (single isomer, unassigned) [Example 44, (3-Cyclopropyl-7-fluorobenzofuran-4-yl)(1H-imidazol-2-yl)methanol] | 6.54 | > 41 | 
OC(c1ncc[nH]1)c1cccc2cc3n(c12)CCC3 (stereo not drawn) [Example 58, (2,3-Dihydro-1H-pyrrolo[1,2-a]indol-5-yl)(1H-imidazol-2-yl)methanol] |  | > 41.6 | 
CCc1coc2c(F)ccc(C(O)c3ncn[nH]3)c12 (stereo not drawn) [Example 63, (3-Ethyl-7-fluorobenzofuran-4-yl)(1H-1,2,4-triazol-5-yl)methanol] |  | 15.6 | 
Cn1ncc2c(F)ccc(C(O)c3ncc[nH]3)c21 (stereo not drawn) [Example 62, (4-Fluoro-1-methyl-1H-indazol-7-yl)(1H-imidazol-2-yl)methanol] | 3.38 |  | 
C/C=C/c1cc(F)ccc1C(O)c1ncc[nH]1 (stereo not drawn) [Example 8, (E)-(4-Fluoro-2-(prop-1-enyl)phenyl)(1H-imidazol-2-yl)methanol] | 5.64 | 5.1 | 
CCc1coc2c(F)ccc(C(O)c3ncc[nH]3)c12 (stereo not drawn) [Example 40, (3-Ethyl-7-fluorobenzofuran-4-yl)(1H-imidazol-2-yl)methanol] |  |  | IC50 (PAR2 [1]; [5]): 0.75 µM; IC50 (PAR2 [2]; [6]): 4.9 µM
CCCc1cc(F)ccc1C(O)c1ncc[nH]1 (stereo not drawn) [Example 1, (4-Fluoro-2-propylphenyl)(1H-imidazol-2-yl)methanol] |  |  | IC50 (PAR2 [1]; hPAR2 IPpone IC50 (μM)): 2.93 µM
Cn1ccc2c(F)ccc(C(O)c3ncc[nH]3)c21 (single isomer, unassigned) [Example 56, (4-Fluoro-1-methyl-1H-indol-7-yl)(1H-imidazol-2-yl)methanol] | > 100 | > 41.6 | 
OC(c1ncc[nH]1)c1ccc(F)c2occ(C3CC3)c12 (stereo not drawn) [Example 43, (3-Cyclopropyl-7-fluorobenzofuran-4-yl)(1H-imidazol-2-yl)methanol] | 0.86 | 4.58 | 
CC(C)c1ccc2c(F)ccc(C(O)c3ncc[nH]3)n12 (stereo not drawn) [Example 38, (8-Fluoro-3-isopropylindolizin-5-yl)(1H-imidazol-2-yl)methanol] |  |  | IC50 (PAR2 [1]; [5]): 1.91 µM; IC50 (PAR2 [2]; [6]): 13.9 µM
OC(c1ncc[nH]1)c1ccc(F)c2occ(C3CC3)c12 (single isomer, unassigned) [Example 45, (3-Cyclopropyl-7-fluorobenzofuran-4-yl)(1H-imidazol-2-yl)methanol] | 0.63 | 6.07 | 
OC(c1ncc[nH]1)c1ccc(F)c(F)c1-n1cccn1 (stereo not drawn) [Example 22, (3,4-Difluoro-2-(1H-pyrazol-1-yl)phenyl)(1H-imidazol-2-yl)methanol] | 4.6 | 20 | 
OC(c1ncc[nH]1)c1ccc(F)cc1C1CCCC1 (stereo not drawn) [Example 6, (2-Cyclopentyl-4-fluorophenyl)(1H-imidazol-2-yl)methanol] | 5 | 9.57 | 
OC(c1ncc[nH]1)c1ccc(F)cc1N1CC=CC1 (single isomer, unassigned) [Example 18, (2-(2,5-dihydro-1H-pyrrol-1-yl)-4-fluorophenyl)(1H-imidazol-2-yl)methanol] | 0.9 | 4.28 | 
OC(c1ncc[nH]1)c1ccc(F)cc1N1CC[C@H](F)C1 (stereo partly drawn) [Example 26, (4-Fluoro-2-((S)-3-fluoropyrrolidin-1-yl)phenyl)(1H-imidazol-2-yl)methanol] | 3.87 |  | 
Cn1ccc2c(F)ccc(C(O)c3ncc[nH]3)c21 (stereo not drawn) [Example 54, (4-Fluoro-1-methyl-1H-indol-7-yl)(1H-imidazol-2-yl)methanol] |  | 6.15 | 
